Measurements reported in ChEMBL document CHEMBL5365473, “Novel Sulfonylurea-Based NLRP3 Inflammasome Inhibitor for Efficient Treatment of Nonalcoholic Steatohepatitis, Endotoxic Shock, and Colitis” (J Med Chem, 2023).
Calls of active or inactive are those of the source. The calls are words filed in the database; no cut-off is given here.

Key:
[1] = Toxicity against male ICR mouse assessed as effect on liver weight at 200 to 500 mg/kg administered via gavage for 12 days; assay type: organism-based; settings: in vivo, po, 288 h, dose 200-500 mg/kg, time 12 day
Mus musculus [2] = test: Antiinflammatory activity against LPS-induced lethal septic shock C57BL/6 mouse model assessed as increase in animal's survival rate at 40 mg/kg, ip administered for 1 hr prior to LPS challenge and measured for 72 hrs; assay type: functional; settings: time 73 hrs
[3] = biological target: NACHT, LRR and PYD domains-containing protein 3 (Mus musculus, UniProt Q8R4B8); test: Inhibition of NLRP3 inflammasome in mouse […] cells assessed as inhibition of LPS/ATP-induced IL-1 beta secretion primed with LPS for 4.5 hs followed by incubation with compound for 30 mins and later stimulation with ATP for 30 mins by ELISA; assay type: cell-based, J774.A1
Sequence of NACHT, LRR and PYD domains-containing protein 3 (Q8R4B8 whole entry, the tested form may be a part): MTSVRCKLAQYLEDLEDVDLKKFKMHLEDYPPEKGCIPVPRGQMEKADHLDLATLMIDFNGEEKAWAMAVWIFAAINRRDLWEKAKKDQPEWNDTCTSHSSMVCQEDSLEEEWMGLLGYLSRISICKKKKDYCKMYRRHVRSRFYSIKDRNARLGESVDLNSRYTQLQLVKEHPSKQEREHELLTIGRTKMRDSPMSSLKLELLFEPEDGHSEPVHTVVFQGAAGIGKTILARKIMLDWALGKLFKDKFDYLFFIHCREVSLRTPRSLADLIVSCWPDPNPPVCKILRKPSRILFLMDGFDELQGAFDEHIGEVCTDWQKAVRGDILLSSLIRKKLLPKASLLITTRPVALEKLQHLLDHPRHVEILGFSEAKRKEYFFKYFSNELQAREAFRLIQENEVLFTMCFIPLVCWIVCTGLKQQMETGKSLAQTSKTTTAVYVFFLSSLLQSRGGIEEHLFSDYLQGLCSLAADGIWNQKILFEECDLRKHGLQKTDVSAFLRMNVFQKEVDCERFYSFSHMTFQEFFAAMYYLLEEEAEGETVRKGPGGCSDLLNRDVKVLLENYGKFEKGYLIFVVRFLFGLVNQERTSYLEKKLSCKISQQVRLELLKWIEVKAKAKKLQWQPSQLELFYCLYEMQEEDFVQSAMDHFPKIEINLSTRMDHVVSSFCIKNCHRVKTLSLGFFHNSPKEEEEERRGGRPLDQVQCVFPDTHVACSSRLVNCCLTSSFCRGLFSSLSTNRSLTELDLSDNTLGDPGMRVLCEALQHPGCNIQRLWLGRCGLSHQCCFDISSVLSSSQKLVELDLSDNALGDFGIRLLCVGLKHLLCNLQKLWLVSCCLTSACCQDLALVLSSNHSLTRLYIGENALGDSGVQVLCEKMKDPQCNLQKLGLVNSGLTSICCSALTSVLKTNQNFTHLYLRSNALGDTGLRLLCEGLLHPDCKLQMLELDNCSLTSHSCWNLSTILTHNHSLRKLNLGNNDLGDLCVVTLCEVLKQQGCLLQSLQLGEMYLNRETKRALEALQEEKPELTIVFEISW

[4] = Apparent volume of distribution in ICR mouse at 5 mg/kg, iv by LC-MS/MS analysis; assay type: ADME, organism-based; settings: in vivo, read-out: Vz
J774.A1 = test: Effect on pro-IL-1 beta protein expression in mouse J774.A1 cells at 3 to 30 nM primed with LPS for 4.5 hrs followed by incubation with compound for 2.5 hrs and later stimulated with ATP for 30 mins by immunoblot analysis; assay type: functional, cell-based; settings: dose 3-30 nM, time 3.0 hrs
[5] = Toxicity against male ICR mouse assessed as effect on spleen weight at 200 to 500 mg/kg administered via gavage for 12 days; assay type: organism-based; settings: in vivo, po, 288 h, dose 200-500 mg/kg, time 12 day
[6] = Toxicity against male ICR mouse assessed as effect on body weight at 200 to 500 mg/kg administered via gavage for 12 days; assay type: organism-based; settings: in vivo, po, 288 h, dose 200-500 mg/kg, time 12 day
Mus musculus [7] = test: Antiinflammatory activity against MCD diet-induced NASH C57BL/6 mouse model assessed as reduction in liver fibrosis at 40 mg/kg, po administered via gavage for 5 weeks by Masson's trichrome staining based analysis; assay type: functional, organism-based
[8] = Tmax in ICR mouse at 5 mg/kg, iv by LC-MS/MS analysis; assay type: ADME, organism-based; settings: in vivo
[9] = biological target: NACHT, LRR and PYD domains-containing protein 3 (Mus musculus) (UniProt Q8R4B8); test: Inhibition of NLRP3 inflammasome in mouse J774.A1 cells assessed as inhibition of IL-1 beta secretion at 30 nM primed with LPS for 4.5 hrs followed by incubation with compound for 24 hrs and later stimulated with nigericin for 1 hr by immunoblot analysis; assay type: cell-based; settings: time 25.0 hrs
Sequence of NACHT, LRR and PYD domains-containing protein 3 (Mus musculus) (Q8R4B8 whole entry, the tested form may be a part): as above

[10] = biological target: NACHT, LRR and PYD domains-containing protein 3 (Homo sapiens) (UniProt Q96P20); test: Inhibition of NLRP3 inflammasome in PMA-induced differentiated human THP-1 cells assessed as inhibition of caspase-1 activation primed with LPS for 4.5 hrs followed by incubation with compound for 2.5 hrs and later stimulated with ATP for 1 hr by immunoblot analysis; assay type: cell-based; settings: dose 3-30 nM, time 3.5 hrs
Sequence of NACHT, LRR and PYD domains-containing protein 3 (Homo sapiens) (Q96P20 whole entry, the tested form may be a part): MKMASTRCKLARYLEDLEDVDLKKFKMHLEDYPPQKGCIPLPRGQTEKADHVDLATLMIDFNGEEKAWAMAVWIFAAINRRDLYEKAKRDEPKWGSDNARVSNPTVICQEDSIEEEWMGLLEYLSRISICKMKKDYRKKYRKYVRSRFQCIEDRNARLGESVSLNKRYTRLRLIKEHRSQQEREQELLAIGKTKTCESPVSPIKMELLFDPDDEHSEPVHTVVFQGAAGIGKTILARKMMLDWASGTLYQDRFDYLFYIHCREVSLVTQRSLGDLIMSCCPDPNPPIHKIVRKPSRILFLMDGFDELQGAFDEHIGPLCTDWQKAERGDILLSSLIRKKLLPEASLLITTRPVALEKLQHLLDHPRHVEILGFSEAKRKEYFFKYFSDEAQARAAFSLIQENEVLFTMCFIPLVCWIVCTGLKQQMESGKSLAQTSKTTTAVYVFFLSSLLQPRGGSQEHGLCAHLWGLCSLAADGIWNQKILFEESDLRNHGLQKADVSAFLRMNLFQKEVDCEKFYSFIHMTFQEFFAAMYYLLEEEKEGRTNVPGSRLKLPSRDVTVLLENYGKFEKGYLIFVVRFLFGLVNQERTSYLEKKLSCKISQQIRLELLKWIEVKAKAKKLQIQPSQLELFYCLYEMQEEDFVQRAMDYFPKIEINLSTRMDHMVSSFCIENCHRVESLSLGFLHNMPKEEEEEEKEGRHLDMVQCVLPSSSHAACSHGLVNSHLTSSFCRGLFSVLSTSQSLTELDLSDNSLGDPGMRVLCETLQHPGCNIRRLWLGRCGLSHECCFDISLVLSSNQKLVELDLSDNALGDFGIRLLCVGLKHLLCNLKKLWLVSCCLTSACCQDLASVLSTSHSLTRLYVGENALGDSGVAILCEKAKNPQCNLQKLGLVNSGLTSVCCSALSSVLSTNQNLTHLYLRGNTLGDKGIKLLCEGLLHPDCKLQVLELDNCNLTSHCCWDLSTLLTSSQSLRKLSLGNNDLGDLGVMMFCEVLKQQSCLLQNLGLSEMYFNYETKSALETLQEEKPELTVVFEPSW

Mus musculus [11] = test: Antiinflammatory activity against MCD diet-induced NASH C57BL/6 mouse model assessed as reduction in liver steatosis at 40 mg/kg, po administered via gavage for 5 weeks by Masson's trichrome staining based analysis; assay type: functional, organism-based
[12] = Toxicity against male ICR mouse assessed as effect on kidney weight at 200 to 500 mg/kg administered via gavage for 12 days; assay type: organism-based; settings: in vivo, po, 288 h, dose 200-500 mg/kg, time 12 day
[13] = Toxicity against male ICR mouse assessed as effect on heart weight at 200 to 500 mg/kg administered via gavage for 12 days; assay type: organism-based; settings: in vivo, po, 288 h, dose 200-500 mg/kg, time 12 day
[14] = Tmax in ICR mouse at 10 mg/kg, po by LC-MS/MS analysis; assay type: ADME, organism-based; settings: in vivo
Mus musculus [15] = test: Antiinflammatory activity against DSS-induced ulcerative colitis C57BL/6 mouse assessed as reduction in mucosal barrier disruption in colon at 10 mg/kg, ip administered for 9 days and measured on day 10 by H and E staining based analysis; assay type: functional, organism-based; settings: time 10.0 day
[16] = biological target: NLR family CARD domain-containing protein 4 (Mus musculus) (UniProt Q3UP24); test: Inhibition of NLRC4 inflammasome in mouse J774.A1 cells assessed as inhibition of IL-1 beta secretion at 30 nM primed with LPS for 4.5 hrs followed by incubation with compound for 24 hrs and later stimulated with flagellin for 24 hrs by immunoblot analysis; assay type: cell-based; settings: time 48.0 hrs
Sequence of NLR family CARD domain-containing protein 4 (Mus musculus) (Q3UP24 whole entry, the tested form may be a part): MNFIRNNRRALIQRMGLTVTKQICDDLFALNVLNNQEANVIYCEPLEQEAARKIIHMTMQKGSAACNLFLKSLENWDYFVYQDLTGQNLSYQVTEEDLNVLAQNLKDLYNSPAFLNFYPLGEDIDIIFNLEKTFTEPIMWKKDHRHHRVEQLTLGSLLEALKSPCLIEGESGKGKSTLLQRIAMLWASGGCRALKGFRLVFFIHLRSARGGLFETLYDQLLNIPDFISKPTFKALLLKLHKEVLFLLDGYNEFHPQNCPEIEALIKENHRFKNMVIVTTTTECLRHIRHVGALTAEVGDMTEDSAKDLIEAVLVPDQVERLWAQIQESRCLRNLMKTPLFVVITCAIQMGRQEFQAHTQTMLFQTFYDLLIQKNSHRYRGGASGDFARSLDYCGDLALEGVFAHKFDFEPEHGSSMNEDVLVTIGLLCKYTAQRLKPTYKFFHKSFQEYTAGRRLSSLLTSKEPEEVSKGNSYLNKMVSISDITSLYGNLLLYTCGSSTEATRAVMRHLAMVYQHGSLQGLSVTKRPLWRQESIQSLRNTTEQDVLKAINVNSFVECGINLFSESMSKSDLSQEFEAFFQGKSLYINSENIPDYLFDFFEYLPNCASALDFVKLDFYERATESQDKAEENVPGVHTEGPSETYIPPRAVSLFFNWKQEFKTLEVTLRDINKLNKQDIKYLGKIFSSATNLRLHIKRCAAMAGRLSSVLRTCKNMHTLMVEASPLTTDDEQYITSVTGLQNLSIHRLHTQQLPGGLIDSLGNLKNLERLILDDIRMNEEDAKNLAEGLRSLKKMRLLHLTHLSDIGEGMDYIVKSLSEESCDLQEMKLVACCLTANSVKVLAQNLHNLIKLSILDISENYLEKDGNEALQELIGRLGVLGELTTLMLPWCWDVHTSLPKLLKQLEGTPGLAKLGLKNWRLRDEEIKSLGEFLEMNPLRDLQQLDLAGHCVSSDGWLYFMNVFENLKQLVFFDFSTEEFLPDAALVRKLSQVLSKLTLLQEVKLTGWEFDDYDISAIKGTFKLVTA

[17] = Drug uptake in Sprague-Dawley rat kidney at 50 mg/kg, po measured for 24 hrs by LC-MS/MS analysis; assay type: ADME, organism-based; settings: in vivo
Mus musculus [18] = test: Antiinflammatory activity against MCD diet-induced NASH C57BL/6 mouse model assessed as improvement in liver morphology at 40 mg/kg, po administered via gavage for 5 weeks by Masson's trichrome staining based analysis; assay type: functional, organism-based
[19] = Toxicity against female ICR mouse assessed as effect on plasma AST level at 200 to 500 mg/kg administered via gavage for 12 days; assay type: organism-based; settings: in vivo, po, 288 h, dose 200-500 mg/kg, time 12 day
Mus musculus [20] = test: Antiinflammatory activity against MCD diet-induced NASH C57BL/6 mouse model assessed as reduction in balloon dilatation in liver at 40 mg/kg, po administered via gavage for 5 weeks by Masson's trichrome staining based analysis; assay type: functional, organism-based
[21] = biological target: NACHT, LRR and PYD domains-containing protein 3 (Mus musculus) (UniProt Q8R4B8); test: Inhibition of NLRP3 inflammasome in mouse J774.A1 cells assessed as inhibition of caspase-1 activation primed with LPS for 4.5 hrs followed by incubation with compound for 2.5 hrs and later stimulated with ATP for 30 mins by immunoblot analysis; assay type: cell-based; settings: dose 3-30 nM, time 3.0 hrs
[22] = Toxicity against male ICR mouse assessed as effect on lung weight at 200 to 500 mg/kg administered via gavage for 12 days; assay type: organism-based; settings: in vivo, po, 288 h, dose 200-500 mg/kg, time 12 day
Mus musculus [23] = test: Antiinflammatory activity against DSS-induced ulcerative colitis C57BL/6 mouse assessed as reduction in inflammatory cells infiltration in lamina propria in colon at 10 mg/kg, ip administered for 9 days and measured on day 10 by H and E staining based analysis; assay type: functional, organism-based; settings: time 10.0 day
[24] = biological target: T1, Interferon-inducible protein AIM2 (Mus musculus) (UniProt Q91VJ1); test: Inhibition of AIM2 inflammasome in mouse J774.A1 cells assessed as inhibition of IL-1 beta secretion at 30 nM primed with LPS for 4.5 hrs followed by incubation with compound for 24 hrs and later stimulated with poly (dA:dT) for 6 hrs by immunoblot analysis; assay type: cell-based; settings: time 30.0 hrs
T1 sequence (whole entry): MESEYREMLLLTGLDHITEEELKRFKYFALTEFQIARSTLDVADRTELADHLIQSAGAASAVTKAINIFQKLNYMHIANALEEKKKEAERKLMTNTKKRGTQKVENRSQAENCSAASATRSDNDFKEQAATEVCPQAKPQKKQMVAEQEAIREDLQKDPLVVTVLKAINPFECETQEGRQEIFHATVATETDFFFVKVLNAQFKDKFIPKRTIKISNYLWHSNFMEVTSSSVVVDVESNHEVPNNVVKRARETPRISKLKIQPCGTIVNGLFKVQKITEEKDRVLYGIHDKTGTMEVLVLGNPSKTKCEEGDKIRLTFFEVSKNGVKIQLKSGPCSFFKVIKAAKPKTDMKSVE

[25] = Drug uptake in Sprague-Dawley rat muscle at 50 mg/kg, po measured for 24 hrs by LC-MS/MS analysis; assay type: ADME, organism-based, Muscle tissue; settings: in vivo
[26] = AUC (0 to infinity) in ICR mouse at 10 mg/kg, po by LC-MS/MS analysis; assay type: ADME, organism-based; parameters: dose 10 mg/kg, route po; settings: in vivo
[27] = Effect on immune cell numbers in MCS diet-fed C57BL/6 mouse assessed as effect on CD45 expression at 40 mg/kg, po administered via gavage for 5 weeks by immunofluorescence staining based analysis; assay type: toxicity, organism-based; settings: in vivo, 840 h

For `CN(C)Cc1ccc(S(=O)(=O)NC(=O)Nc2c3c(cc4c2CCC4)CCC3)cc1`, which Activity [1] is on record?
Its Activity is “Non-Toxic”.

What about the survival at 40 mg/kg (Mus musculus [2]) of the same compound?
The survival at 40 mg/kg was 70%.

And the IC50 [3]?
The IC50 was 25 nM.

What about the Vd [4] of the same compound?
The Vd was 0.226 L/kg.

And the Activity (J774.A1)?
The Activity was “inactive”.

And the Activity [5]?
Its Activity is “Non-Toxic”.

And the Activity [6]?
The Activity was “Non-Toxic”.

What about the Activity (Mus musculus [7]) of the same compound?
Its Activity is “Active”.

What about the Tmax [8] of the same compound?
The Tmax was 4.98 min.

And the inhibition [9]?
Its inhibition is “Active”.

What about the inhibition [10] of the same compound?
The inhibition was “Dose-Dependent Effect”.

And the Activity (Mus musculus [11])?
The Activity was “Active”.

What about the Activity [12] of the same compound?
The Activity was “Non-Toxic”.

What about the Activity [13] of the same compound?
Its Activity is “Non-Toxic”.

And the Tmax [14]?
The Tmax was 40 min.

And the Activity (Mus musculus [15])?
The Activity was “Active”.

And the inhibition [16]?
Its inhibition is “inactive”.

And the Drug uptake [17]?
Its Drug uptake is “Active”.

And the Activity (Mus musculus [18])?
Its Activity is “Active”.

And the Activity [19]?
The Activity was “Non-Toxic”.

And the Activity (Mus musculus [20])?
The Activity was “Active”.

What about the inhibition [21] of the same compound?
The inhibition was “Dose-Dependent Effect”.

And the Activity [22]?
Its Activity is “Non-Toxic”.

What about the Activity (Mus musculus [23]) of the same compound?
The Activity was “Active”.

What about the inhibition [24] of the same compound?
The inhibition was “inactive”.

And the Drug uptake [25]?
The Drug uptake was “Active”.

What about the AUC(0-inf) [26] of the same compound?
The AUC(0-inf) was 222 µg·h/mL.

And the Activity [27]?
The Activity was “Non-Toxic”.
